According to PubChem BioAssay AID1259407 (Chemical Carcinogenesis Research Information System (CCRIS), 2018):
The source made the active and inactive calls. How the calls were made is not given here.

System: CCRIS mutagenicity, Ames/micronucleus/aberration tests
Assay: CCRIS mutagenicity studies
[1] = Test System: AMES SALMONELLA TYPHIMURIUM, Strain/Indicator: TA98, Metabolic Activation: NONE, Method: STANDARD PLATE
[2] = Test System: AMES SALMONELLA TYPHIMURIUM, Strain/Indicator: TA98, Metabolic Activation: RAT, LIVER, S-9, AROCLOR 1254, Method: STANDARD PLATE
[3] = Test System: AMES SALMONELLA TYPHIMURIUM, Strain/Indicator: TA100, Metabolic Activation: NONE, Method: STANDARD PLATE
[4] = Test System: AMES SALMONELLA TYPHIMURIUM, Strain/Indicator: TA100, Metabolic Activation: RAT, LIVER, S-9, AROCLOR 1254, Method: STANDARD PLATE

**Q.** For Cc1c(N(C)C)c(=O)n(-c2ccccc2)n1C, which mutagenic call (Test System: AMES SALMONELLA TYPHIMURIUM, Strain/Indicator: TA97, Metabolic Activation: NONE, Method: STANDARD PLATE) is on record?
**A.** inactive; negative

**Q.** And the mutagenic call (Test System: AMES SALMONELLA TYPHIMURIUM, Strain/Indicator: TA97, Metabolic Activation: RAT, LIVER, S-9, AROCLOR 1254, Method: STANDARD PLATE)?
**A.** inactive; negative

**Q.** And the mutagenic call (Test System: AMES SALMONELLA TYPHIMURIUM, Strain/Indicator: TA98, Metabolic Activation: GUINEA PIG, LIVER, S-9, PCB, Method: PREINCUBATION)?
**A.** inactive; negative

**Q.** What about the mutagenic call (Test System: AMES SALMONELLA TYPHIMURIUM, Strain/Indicator: TA98, Metabolic Activation: HAMSTER, LIVER, S-9, PCB, Method: PREINCUBATION) of the same compound?
**A.** inactive; negative

**Q.** What about the mutagenic call (Test System: AMES SALMONELLA TYPHIMURIUM, Strain/Indicator: TA98, Metabolic Activation: MOUSE, LIVER, S-9, PCB, Method: PREINCUBATION) of the same compound?
**A.** inactive; negative

**Q.** And the mutagenic call (Test System: AMES SALMONELLA TYPHIMURIUM, Strain/Indicator: TA98, Metabolic Activation: NONE, Method: PREINCUBATION)?
**A.** inactive; negative

**Q.** What about the mutagenic call [1] of the same compound?
**A.** inactive; negative

**Q.** And the mutagenic call [2]?
**A.** inactive; negative

**Q.** And the mutagenic call (Test System: AMES SALMONELLA TYPHIMURIUM, Strain/Indicator: TA98, Metabolic Activation: RAT, LIVER, S-9, PCB, Method: PREINCUBATION)?
**A.** inactive; negative

**Q.** And the mutagenic call (Test System: AMES SALMONELLA TYPHIMURIUM, Strain/Indicator: TA100(FR1), Metabolic Activation: NONE, Method: STANDARD PLATE)?
**A.** inactive; negative

**Q.** What about the mutagenic call (Test System: AMES SALMONELLA TYPHIMURIUM, Strain/Indicator: TA100(FR1), Metabolic Activation: RAT, LIVER, S-9, PHENOBARBITAL AND 3-METHYLCHOLANTHRENE, Method: STANDARD PLATE) of the same compound?
**A.** inactive; negative

**Q.** And the mutagenic call (Test System: AMES SALMONELLA TYPHIMURIUM, Strain/Indicator: TA100, Metabolic Activation: GUINEA PIG, LIVER, S-9, PCB, Method: PREINCUBATION)?
**A.** inactive; negative

**Q.** What about the mutagenic call (Test System: AMES SALMONELLA TYPHIMURIUM, Strain/Indicator: TA100, Metabolic Activation: HAMSTER, LIVER, S-9, PCB, Method: PREINCUBATION) of the same compound?
**A.** inactive; negative

**Q.** What about the mutagenic call (Test System: AMES SALMONELLA TYPHIMURIUM, Strain/Indicator: TA100, Metabolic Activation: MOUSE, LIVER, S-9, PCB, Method: PREINCUBATION) of the same compound?
**A.** inactive; negative

**Q.** What about the mutagenic call (Test System: AMES SALMONELLA TYPHIMURIUM, Strain/Indicator: TA100, Metabolic Activation: NONE, Method: PREINCUBATION) of the same compound?
**A.** inactive; negative

**Q.** What about the mutagenic call [3] of the same compound?
**A.** inactive; negative

**Q.** What about the mutagenic call [4] of the same compound?
**A.** inactive; negative

**Q.** What about the mutagenic call (Test System: AMES SALMONELLA TYPHIMURIUM, Strain/Indicator: TA100, Metabolic Activation: RAT, LIVER, S-9, PCB, Method: PREINCUBATION) of the same compound?
**A.** inactive; negative

**Q.** What about the mutagenic call (Test System: AMES SALMONELLA TYPHIMURIUM, Strain/Indicator: TA100, Metabolic Activation: RAT, LIVER, S-9, PHENOBARBITAL AND 3-METHYLCHOLANTHRENE, Method: STANDARD PLATE) of the same compound?
**A.** inactive; negative

**Q.** What about the mutagenic call (Test System: AMES SALMONELLA TYPHIMURIUM, Strain/Indicator: TA102, Metabolic Activation: NONE, Method: STANDARD PLATE) of the same compound?
**A.** inactive; negative

**Q.** What about the mutagenic call (Test System: AMES SALMONELLA TYPHIMURIUM, Strain/Indicator: TA102, Metabolic Activation: RAT, LIVER, S-9, AROCLOR 1254, Method: STANDARD PLATE) of the same compound?
**A.** inactive; negative

**Q.** What about the mutagenic call (Test System: AMES SALMONELLA TYPHIMURIUM, Strain/Indicator: TA104, Metabolic Activation: NONE, Method: STANDARD PLATE) of the same compound?
**A.** inactive; negative

**Q.** What about the mutagenic call (Test System: AMES SALMONELLA TYPHIMURIUM, Strain/Indicator: TA104, Metabolic Activation: RAT, LIVER, S-9, AROCLOR 1254, Method: STANDARD PLATE) of the same compound?
**A.** inactive; negative

**Q.** And the mutagenic call (Test System: CHINESE HAMSTER V-79, Strain/Indicator: V-79/6-THIOGUANINE, Metabolic Activation: NONE)?
**A.** inactive; negative

**Q.** What about the mutagenic call (Test System: CHINESE HAMSTER V-79, Strain/Indicator: V-79/6-THIOGUANINE, Metabolic Activation: RAT, LIVER, HEPATOCYTES) of the same compound?
**A.** inactive; negative

**Q.** What about the mutagenic call (Test System: CHINESE HAMSTER V-79, Strain/Indicator: V-79/OUABAIN, Metabolic Activation: NONE) of the same compound?
**A.** inactive; negative

**Q.** What about the mutagenic call (Test System: CHINESE HAMSTER V-79, Strain/Indicator: V-79/OUABAIN, Metabolic Activation: RAT, LIVER, HEPATOCYTES) of the same compound?
**A.** inactive; negative

**Q.** Which results are given for Cc1ccc(C)c2c1ccc1ccccc12?
**A.** mutagenic call [1]: inactive; negative; mutagenic call [2]: active; positive; mutagenic call [3]: inactive; negative; mutagenic call [4]: active; positive

**Q.** With CCC(O)/C=C/C=O (configuration not stated) as the compound, how does the mutagenic call (End Point: IN VITRO CHROMOSOMAL ABERRATIONS, Test System: RAT HEPATOCYTES, Metabolic Activation: NONE) read?
**A.** active; positive

**Q.** And the mutagenic call (End Point: IN VITRO MICRONUCLEUS, Test System: RAT HEPATOCYTES, Metabolic Activation: NONE)?
**A.** active; positive

**Q.** For CC1(S(=O)(=O)O)CC(=O)c2ccccc2C1=O (configuration not stated) (tested in a mixture with another compound), which mutagenic call (Test System: AMES SALMONELLA TYPHIMURIUM, Strain/Indicator: TA98, Metabolic Activation: NONE, Method: SPIRAL ASSAY) is on record?
**A.** inactive; negative

**Q.** And the mutagenic call [1]?
**A.** inactive; negative

**Q.** And the mutagenic call (Test System: AMES SALMONELLA TYPHIMURIUM, Strain/Indicator: TA98, Metabolic Activation: RAT, LIVER, S-9, AROCLOR 1254, Method: SPIRAL ASSAY)?
**A.** inactive; negative

**Q.** What about the mutagenic call [2] of the same compound?
**A.** active; positive

**Q.** What about the mutagenic call (Test System: AMES SALMONELLA TYPHIMURIUM, Strain/Indicator: TA100, Metabolic Activation: NONE, Method: SPIRAL ASSAY) of the same compound?
**A.** inactive; negative

**Q.** What about the mutagenic call [3] of the same compound?
**A.** inactive; negative

**Q.** And the mutagenic call (Test System: AMES SALMONELLA TYPHIMURIUM, Strain/Indicator: TA100, Metabolic Activation: RAT, LIVER, S-9, AROCLOR 1254, Method: SPIRAL ASSAY)?
**A.** inactive; negative

**Q.** What about the mutagenic call [4] of the same compound?
**A.** inactive; negative

**Q.** What about the mutagenic call (Test System: AMES SALMONELLA TYPHIMURIUM, Strain/Indicator: TA1535, Metabolic Activation: NONE, Method: SPIRAL ASSAY) of the same compound?
**A.** inactive; negative

**Q.** And the mutagenic call (Test System: AMES SALMONELLA TYPHIMURIUM, Strain/Indicator: TA1535, Metabolic Activation: NONE, Method: STANDARD PLATE)?
**A.** inactive; negative

**Q.** And the mutagenic call (Test System: AMES SALMONELLA TYPHIMURIUM, Strain/Indicator: TA1535, Metabolic Activation: RAT, LIVER, S-9, AROCLOR 1254, Method: SPIRAL ASSAY)?
**A.** inactive; negative

**Q.** And the mutagenic call (Test System: AMES SALMONELLA TYPHIMURIUM, Strain/Indicator: TA1535, Metabolic Activation: RAT, LIVER, S-9, AROCLOR 1254, Method: STANDARD PLATE)?
**A.** inactive; negative

**Q.** What about the mutagenic call (Test System: AMES SALMONELLA TYPHIMURIUM, Strain/Indicator: TA1537, Metabolic Activation: NONE, Method: SPIRAL ASSAY) of the same compound?
**A.** inactive; negative

**Q.** What about the mutagenic call (Test System: AMES SALMONELLA TYPHIMURIUM, Strain/Indicator: TA1537, Metabolic Activation: NONE, Method: STANDARD PLATE) of the same compound?
**A.** inactive; negative

**Q.** And the mutagenic call (Test System: AMES SALMONELLA TYPHIMURIUM, Strain/Indicator: TA1537, Metabolic Activation: RAT, LIVER, S-9, AROCLOR 1254, Method: SPIRAL ASSAY)?
**A.** inactive; negative

**Q.** And the mutagenic call (Test System: AMES SALMONELLA TYPHIMURIUM, Strain/Indicator: TA1537, Metabolic Activation: RAT, LIVER, S-9, AROCLOR 1254, Method: STANDARD PLATE)?
**A.** inactive; negative

**Q.** How did the mutagenic call (Test System: AMES SALMONELLA TYPHIMURIUM, Strain/Indicator: TA1535, Metabolic Activation: HAMSTER, LIVER, S-9, AROCLOR 1254, Method: PREINCUBATION) turn out when CCN=[N+](C)[O-] was run?
**A.** inactive; negative

**Q.** And the mutagenic call (Test System: AMES SALMONELLA TYPHIMURIUM, Strain/Indicator: TA1535, Metabolic Activation: NONE, Method: PREINCUBATION)?
**A.** inactive; negative

**Q.** What about the mutagenic call (Test System: AMES SALMONELLA TYPHIMURIUM, Strain/Indicator: TA1535, Metabolic Activation: RAT, LIVER, S-9, AROCLOR 1254, Method: PREINCUBATION) of the same compound?
**A.** inactive; negative
